Laboratory results from patent publication US10087199B2, “Super-resolution imaging compositions and methods using same” (Yale University, priority 2014, dated 2018).

Tests used:
HeLa cells = experiment: Cell viability / cell- and photo-toxicity under prolonged imaging; format: cell-based; conditions: at concentrations as high as 2 μM
Protocol: In the experiments described above, the cells were exposed to Cer-TCO/SiR-Tz for minutes, a relatively short time period. To evaluate whether this Golgi labeling strategy would result in cell- or photo-toxicity over prolonged periods (such as hours), HeLa cells were treated with varying concentrations of either Cer-TCO/SiR-Tz or BODIPY® FL C5-ceramide (BODIPY-Cer) (Marks, et al., 2008, Cell Biol. 130:819-832; Pagano, et al., 1991, J. Cell Biol. 113:1267-1279), a commercially available fluorescent dye that labels the Golgi. […]
Hela cells stably expressing GalNAcT2-GFP were cultured on 35 mm glass bottom dishes subsequently labeled with various concentrations of TCO-Cer (0, 1, 2, and 5 μM) and SiR-Tz (0, 1, and 2 μM) following the protocol described elsewhere herein. […] After equilibration for 30 min, phase contrast images were taken at an interval of 20 min and fluorescence images at an interval of 10 min over 400-750 min. […] The number of physically intact cells was counted at each time point. For each condition at least 110 cells were counted/observed in the initial images (n0 (0 μM TCO-Cer, 0 μM SiR-Tz)=123 cells, n0 (2 μM TCO-Cer, 2 μM SiR-Tz)=113 cells, n0 (1 μM TCO-Cer, 1 μM SiR-Tz)=130 cells, n0 (5 μM TCO-Cer, 1 μM SiR-Tz)=120 cells, n0 (5 μM BODIPY-Cer)=123 cells).

HeLa cells (Golgi label) = experiment: Photostability in sequential 3D spinning disk confocal imaging; format: cell-based; conditions: fixed cells
Protocol: The relative photostability of Cer-TCO/SiR-Tz to both BODIPY-Cer and the SiR labeled SNAP-tag Golgi protein Rab6 was compared. The latter is the product of reaction between Rab6-SNAP and a benzyl guanine derivative of SiR (SiR-BG) (Lukinavicius, et al., 2013, Nature Chem. 5:132-139) and thus contains the same near-IR dye as SiR-Tz (FIGS. 5A-5B). HeLa cells were treated with Cer-TCO/SiR-Tz or BODIPY-Cer, while Rab6-SNAP-expressing cells were treated with SiR-BG. The cells were then examined in sequential 3D images using spinning disk confocal microscopy; 3D visualization limited fluorescence fluctuations due to axial sample drift. In each case, 3D “stacks” of 22 optical sections were acquired in series up to 500 times in live or fixed cells (FIGS. 5A-5B). In live cells, even under optimal imaging conditions the BODIPY-Cer fluorescent signal decreased by 50% after fewer than 15 stacks. In striking contrast, the fluorescent signal of cells treated with 2 μM Cer-TCO followed by 2 μM SiR-Tz decreased by only 10% after more than 120 3D stacks had been acquired. Consistent with a lower density of Rab6-SNAP protein in the Golgi, the signal from Rab6-SNAP-SiR decayed at an intermediate rate, decreasing by 50% after about 50 3D stacks. […] After 500 3D stacks the fluorescent signal of Cer-SiR decreased 16% whereas that of Rab6-SNAP-SiR decreased by 84%. […]

CCCCCCCCCCCCC/C=C/[C@@H](O)[C@H](CO)NC(=O)CCCCCNC(=O)OC1CCCC2=C(c3ccc(CNC(=O)c4ccc(C(=O)[O-])c(C5=C6C=CC(=[N+](C)C)C=C6[Si](C)(C)c6cc(N(C)C)ccc65)c4)cc3)NN=CC2CC1 (stereo partly drawn) [Cer-SiR, 4-((4-(7-(((6-(((2S,3R,E)-1,3-dihydroxyoctadec-4-en-2-yl)amino)-6-oxohexyl)carbamoyl)oxy)-2,4a,5,6,7,8,9,10-octahydrocycloocta[d]pyridazin-1-yl)benzyl)carbamoyl)-2-(7-(dimethylamino)-3-(dimethyliminio)-5,5-dimethyl-3,5-dihydrodibenzo[b,e]silin-10-yl)benzoate]
Toxicity (HeLa cells): non-toxic
Decrease of fluorescent signal after 500 3D stacks (HeLa cells (Golgi label)): 16%
